Assay results published in PubChem BioAssay AID256 (DTP/NCI, 2004).
Where “and” joins values, the source holds several entries; their conditions need not be identical. Identical values can stand only once. Toxic doses and inconclusive results are not listed. How the source made its calls: active means survival T/C of 150% or more; inactive means T/C below 125% in these data.

Test system: CD2F1 mice, L1210 leukemia ip, survival T/C
Test: NCI In Vivo Anticancer Drug Screen. Data for tumor model L1210 Leukemia (intraperitoneal) in CD2F1 (CDF1) mice
Conditions: higher = longer survival
Outline: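 Mice carrying a transplanted tumor received test compound or vehicle alone. The value is the measurement in the treated group divided by that in the vehicle-treated control group.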

[1] = endpoint: mean survival time, dose: 12.5 mg/kg/injection, schedule: Q01DX009 (ip), vehicle: saline
[2] = endpoint: mean survival time, dose: 25.0 mg/kg/injection, schedule: Q01DX009 (ip), vehicle: saline
[3] = endpoint: mean survival time, dose: 50.0 mg/kg/injection, schedule: Q01DX009 (ip), vehicle: saline
[4] = endpoint: mean survival time, dose: 100.0 mg/kg/injection, schedule: Q01DX009 (ip), vehicle: saline
[5] = endpoint: mean survival time, dose: 100.0 mg/kg/injection, schedule: Q04DX003 (ip), vehicle: saline
[6] = endpoint: mean survival time, dose: 200.0 mg/kg/injection, schedule: Q01DX009 (ip), vehicle: saline
[7] = endpoint: mean survival time, dose: 200.0 mg/kg/injection, schedule: Q04DX003 (ip), vehicle: saline
[8] = endpoint: mean survival time, dose: 400.0 mg/kg/injection, schedule: Q04DX003 (ip), vehicle: saline
[9] = endpoint: mean survival time, dose: 100.0 mg/kg/injection, schedule: Q01DX009 (ip), vehicle: saline with Tween-80
[10] = endpoint: mean survival time, dose: 200.0 mg/kg/injection, schedule: Q04DX003 (ip), vehicle: saline with Tween-80
[11] = endpoint: mean survival time, dose: 400.0 mg/kg/injection, schedule: Q01DX009 (ip), vehicle: saline with Tween-80
[12] = endpoint: mean survival time, dose: 12.5 mg/kg/injection, schedule: Q01DX009 (ip), vehicle: saline with Tween-80
[13] = endpoint: mean survival time, dose: 25.0 mg/kg/injection, schedule: Q01DX009 (ip), vehicle: saline with Tween-80
[14] = endpoint: mean survival time, dose: 50.0 mg/kg/injection, schedule: Q01DX009 (ip), vehicle: saline with Tween-80
[15] = endpoint: mean survival time, dose: 100.0 mg/kg/injection, schedule: Q01DX001 (ip), vehicle: saline with Tween-80
[16] = endpoint: mean survival time, dose: 200.0 mg/kg/injection, schedule: Q01DX001 (ip), vehicle: saline with Tween-80
[17] = endpoint: mean survival time, dose: 400.0 mg/kg/injection, schedule: Q01DX001 (ip), vehicle: saline with Tween-80
[18] = endpoint: mean survival time, dose: 12.5 mg/kg/injection, schedule: Q04DX003 (ip), vehicle: saline with Tween-80
[19] = endpoint: mean survival time, dose: 25.0 mg/kg/injection, schedule: Q04DX003 (ip), vehicle: saline with Tween-80
[20] = endpoint: mean survival time, dose: 50.0 mg/kg/injection, schedule: Q04DX003 (ip), vehicle: saline with Tween-80
[21] = endpoint: mean survival time, dose: 100.0 mg/kg/injection, schedule: Q04DX003 (ip), vehicle: saline with Tween-80
[22] = endpoint: mean survival time, dose: 200.0 mg/kg/injection, schedule: Q01DX009 (ip), vehicle: saline with Tween-80
[23] = endpoint: mean survival time, dose: 400.0 mg/kg/injection, schedule: Q04DX003 (ip), vehicle: saline with Tween-80

Measured: T/C

CCCC(=O)O
inactive: endpoint: mean survival time, dose: 1.25 mg/kg/injection, schedule: Q01DX009 (ip), vehicle: saline 96 % of control | [1] 98 % of control | [2] 96 % of control and 100 % of control | [3] 96 % of control and 97 % of control | [4] 97 % of control and 100 % of control | [5] 102 % of control | [6] 95 % of control and 107 % of control | [7] 102 % of control | [8] 105 % of control

CCO/N=C(\C)CSC1=NCCN1
inactive: endpoint: mean survival time, dose: 75.0 mg/kg/injection, schedule: Q04DX003 (ip), vehicle: saline 102 % of control | endpoint: mean survival time, dose: 150.0 mg/kg/injection, schedule: Q04DX003 (ip), vehicle: saline 100 % of control

Nc1cccc(NC=O)c1
inactive: endpoint: mean survival time, dose: 100.0 mg/kg/injection, schedule: Q04DX003 (ip), vehicle: Klucel (hydroxypropylcellulose) (HPC) 102 % of control

OCC(O)C(O)C(O)C(O)CO (centres undefined)
inactive: [9] 98 % of control | [5] 96 % of control | [10] 97 % of control | [7] 98 % of control | [11] 98 % of control | [8] 96 % of control | endpoint: median survival time, dose: 75.0 mg/kg/injection, schedule: Q01DX009 (ip), vehicle: saline with Tween-80 100 % of control | endpoint: median survival time, dose: 150.0 mg/kg/injection, schedule: Q01DX009 (ip), vehicle: saline with Tween-80 97 % of control | endpoint: median survival time, dose: 600.0 mg/kg/injection, schedule: Q01DX009 (ip), vehicle: saline with Tween-80 100 % of control

OCC1OC(n2ccc3c(NO)ncnc32)C(O)C1O (centres undefined)
inactive: endpoint: mean survival time, dose: 5.0 mg/kg/injection, schedule: Q01DX001 (ip), vehicle: saline 111 % of control | endpoint: mean survival time, dose: 10.0 mg/kg/injection, schedule: Q01DX001 (ip), vehicle: saline 118 % of control

Cn1ccc(=Nc2ccc(NC(=O)c3ccc(N=c4ccn(C)c5ccc([N+](=O)[O-])cc45)cc3[N+](=O)[O-])cc2)cc1
inactive: [12] 101 % of control | [13] 113 % of control | [14] 119 % of control | [9] 119 % of control | [11] 95 % of control

CC(=O)C1=C2c3ccccc3C(=O)c3c(Br)cc(S(=O)(=O)O)c(c32)NC1
inactive: [15] 94 % of control | [16] 94 % of control | [17] 90 % of control

N#Cc1ncc(Cl)cc1[N+](=O)[O-]
inactive: [18] 101 % of control | [19] 101 % of control | [20] 101 % of control

S=C1NCCS1
inactive: endpoint: mean survival time, dose: 75.0 mg/kg/injection, schedule: Q01DX009 (ip), vehicle: Klucel (hydroxypropylcellulose) (HPC) 95 % of control | endpoint: mean survival time, dose: 150.0 mg/kg/injection, schedule: Q01DX009 (ip), vehicle: Klucel (hydroxypropylcellulose) (HPC) 96 % of control | endpoint: mean survival time, dose: 300.0 mg/kg/injection, schedule: Q01DX009 (ip), vehicle: Klucel (hydroxypropylcellulose) (HPC) 101 % of control

O=C1c2ccccc2C(=O)c2c1ccc(O)c2O
inactive: [9] 97 % of control | [21] 102 % of control | [22] 97 % of control | [10] 100 % of control | [11] 90 % of control | [23] 100 % of control

O=C(O)c1c2c(nc3c(Cl)cccc13)-c1ccccc1C2
inactive: [9] 102 % of control | [22] 107 % of control

O=C1C=C(Nc2cccc(C(=O)O)c2)c2ccccc2C1=O
inactive: endpoint: mean survival time, dose: 75.0 mg/kg/injection, schedule: Q01DX001 (ip), vehicle: saline 101 % of control | endpoint: mean survival time, dose: 300.0 mg/kg/injection, schedule: Q01DX001 (ip), vehicle: saline 101 % of control

COc1ccc(C(C)c2cc3c(cc2OC)OCO3)cc1 (centres undefined)
inactive: endpoint: median survival time, dose: 25.0 mg/kg/injection, schedule: Q01DX009 (ip), vehicle: saline with Tween-80 101 % of control | endpoint: median survival time, dose: 50.0 mg/kg/injection, schedule: Q01DX009 (ip), vehicle: saline with Tween-80 107 % of control | endpoint: median survival time, dose: 100.0 mg/kg/injection, schedule: Q01DX009 (ip), vehicle: saline with Tween-80 113 % of control | endpoint: median survival time, dose: 200.0 mg/kg/injection, schedule: Q01DX009 (ip), vehicle: saline with Tween-80 119 % of control

O=C(Nc1ccccc1)O/N=C(/c1ccccc1)c1cccnc1
inactive: endpoint: mean survival time, dose: 100.0 mg/kg/injection, schedule: Q01DX001 (ip), vehicle: other 104 % of control | endpoint: mean survival time, dose: 200.0 mg/kg/injection, schedule: Q01DX001 (ip), vehicle: other 104 % of control | endpoint: mean survival time, dose: 400.0 mg/kg/injection, schedule: Q01DX001 (ip), vehicle: other 98 % of control

CC1=C(/C=C/C(O)CC(O)(C(F)(F)F)C(F)(F)F)C(C)(C)CCC1 (centres undefined)
inactive: [5] 107 % of control | [7] 98 % of control | [8] 110 % of control

CN=C(N)c1ccc(N=C(N)c2ccc(NC(=O)c3ccc(C(N)=NC)cc3)cc2)cc1
active: endpoint: mean survival time, dose: 30.0 mg/kg/injection, schedule: Q01DX Z (ip), vehicle: water 151 % of control

COC(=O)c1ccc(C(=O)CC(=O)c2ccccc2)cc1
inactive: endpoint: median survival time, dose: 25.0 mg/kg/injection, schedule: Q04DX003 (ip), vehicle: saline with Tween-80 100 % of control | endpoint: median survival time, dose: 50.0 mg/kg/injection, schedule: Q04DX003 (ip), vehicle: saline with Tween-80 88 % of control | endpoint: median survival time, dose: 100.0 mg/kg/injection, schedule: Q04DX003 (ip), vehicle: saline with Tween-80 88 % of control | endpoint: median survival time, dose: 200.0 mg/kg/injection, schedule: Q04DX003 (ip), vehicle: saline with Tween-80 88 % of control

CCCCCCCCCC/C(C)=N/Nc1ccc([N+](=O)[O-])cc1[N+](=O)[O-]
inactive: [15] 94 % of control | [16] 89 % of control | [17] 93 % of control

CCCNC(=O)C1C2CCC(CC2)C1C(=O)NCCC (centres undefined)
inactive: [21] 98 % of control | [10] 98 % of control | [23] 95 % of control

C[P+](c1ccc(Cl)cc1)(c1ccc(Cl)cc1)c1ccc(Cl)cc1
inactive: endpoint: mean survival time, dose: 6.25 mg/kg/injection, schedule: Q01DX009 (ip), vehicle: saline 119 % of control | [1] 107 % of control | [2] 109 % of control

c1ccc(C2=NN(c3ccccc3)CN(c3ccccc3)N2)cc1
inactive: [9] 106 % of control | [22] 97 % of control | [11] 96 % of control

O=C1CC2CCN(C(=O)c3ccccc3)C(Cc3c[nH]c4ccccc34)C2O1 (centres undefined)
inactive: endpoint: mean survival time, dose: 100.0 mg/kg/injection, schedule: Q01DX001 (ip), vehicle: saline 105 % of control | endpoint: mean survival time, dose: 200.0 mg/kg/injection, schedule: Q01DX001 (ip), vehicle: saline 94 % of control | endpoint: mean survival time, dose: 400.0 mg/kg/injection, schedule: Q01DX001 (ip), vehicle: saline 93 % of control

CCCCOc1cc(C(=O)NCCN(CC)CC)c2ccccc2n1
inactive: endpoint: mean survival time, dose: 6.25 mg/kg/injection, schedule: Q01DX009 (ip), vehicle: saline with Tween-80 102 % of control | [12] 108 % of control | [13] 103 % of control

CNCc1ccc([N+](=O)[O-])cc1
inactive: [3] 104 % of control | [4] 100 % of control | [6] 93 % of control

O=C(O)C(O)C(O)C1[O][Sb][O]C1C(=O)O (centres undefined)
inactive: endpoint: median survival time, dose: 6.25 mg/kg/injection, schedule: Q01DX009 (ip), vehicle: saline 93 % of control | endpoint: median survival time, dose: 12.5 mg/kg/injection, schedule: Q01DX009 (ip), vehicle: saline 102 % of control | endpoint: median survival time, dose: 25.0 mg/kg/injection, schedule: Q01DX009 (ip), vehicle: saline 95 % of control | endpoint: median survival time, dose: 50.0 mg/kg/injection, schedule: Q01DX009 (ip), vehicle: saline 98 % of control

O=C1C(=O)C(Cl)=C(Cl)C(Cl)=C1Cl
inactive: [12] 96 % of control | [18] 93 % of control | [13] 92 % of control | [19] 104 % of control | [20] 104 % of control

O=C(Nc1ccc(Cl)c(Cl)c1)C(Cl)Cl
inactive: [12] 95 % of control | [13] 101 % of control | [14] 107 % of control

O=S(=O)(O)c1cccc2ncccc12
inactive: endpoint: mean survival time, dose: 100.0 mg/kg/injection, schedule: Q01DX001 (ip), vehicle: Klucel (hydroxypropylcellulose) (HPC) 113 % of control | endpoint: mean survival time, dose: 200.0 mg/kg/injection, schedule: Q01DX001 (ip), vehicle: Klucel (hydroxypropylcellulose) (HPC) 92 % of control | endpoint: mean survival time, dose: 400.0 mg/kg/injection, schedule: Q01DX001 (ip), vehicle: Klucel (hydroxypropylcellulose) (HPC) 95 % of control

COc1cccc(N2C(=O)CSC2=S)c1
inactive: [21] 107 % of control | [10] 96 % of control | [23] 106 % of control

CC(=O)CC(=O)c1cccnc1
inactive: [21] 103 % of control | [10] 97 % of control | [23] 101 % of control
